# Data taken from US8815879B2, “Substituted 4-(selenophen-2(or-3)-ylamino)pyrimidine compounds and methods of use thereof” (Kasina Laila Innova Pharmaceuticals Private Limited, priority 2010, dated 2014).
# Entries after “also recorded” stand apart in the source; their conditions may differ.
# What was measured:
# [1] = test system: human cervical carcinoma HeLa cells; test: cells; type: cell-based
# Description: (§1) MTT [3-(4,5-dimethylthiazol-2-yl)-2,5-diphenyltetrazolium bromide] incorporation based cell proliferation assay was performed using standard procedure. […] The assay was carried out according to the instructions provided by the vendor. […] Vehicle control culture wells received only a maximum of 0.5% DMSO. Thereafter, 0.5 mg/ml of MTT reagent was added to each well and the microplate was incubated further for 4 h at 37° C. in presence of 5% CO2. Finally, the cells were solubilized by adding solubilizing solution and allowed to incubate at 37° C. overnight. After complete solubilization of the formazan crystals the absorbance was read at 540 nm in a microplate reader (BioRad, USA).
# (§2) The evaluation of cell proliferation inhibitory activities of the compounds was done in two phases—(1) Screening, and (2) half-maximal inhibitory concentration (IC50) determination. In the screening phase, the cells were treated with three different concentrations e.g. 1, 5 and 10 μg/ml.
# [2] = test system: human breast carcinoma (estrogen receptor negative) MDA-MB-231 cells; test: cells; type: cell-based
# Description: as §1, §2
# [3] = test system: HepG2 (Hepatocellular Carcinoma); test: cells; type: cell-based
# Description: as §1, §2
# [4] = test system: human prostate DU145 cells; test: MTT based cell proliferation assay, DU145; settings: Homo sapiens, DU-145, 72 h, read-out: Cell Proliferation Inhibition in DU145 (Prostate carcinoma), IC50
# [5] = test system: Human umbilical vein endothelial cells (HUVEC); test: In vitro endothelial capillary formation assay; type: cell-based; settings: HUVEC on Cultrex, 10 ng/ml FGF, Compound 27 at 0.5, 1.0, 2.5 and 5 μg/ml, 16 h
# Description: Human umbilical vein endothelial cells (HUVECs) were laid on Cultrex coated plates in presence of either 10 ng/ml human recombinant Fibroblast Growth Factor (FGF) alone (B) or concomitantly with Compound 27 at 0.5, 1.0, 2.5 and 5 μg/ml C, D, E, and F, respectively. The cells in presence of treatments were allowed to form endothelial capillary tubes for 16 h at 37° C. Panel A represents capillary-like endothelial tube formation in 0.1% DMSO treated vehicle control wells.
# In vitro capillary formation assay was performed with Human umbilical vein endothelial cells (HUVEC), cultured on 10 mg/ml basement membrane extract (BME—Cultrex®, R&D Systems, USA) bed. Four hundred microliters of Cultrex was coated at 4° C. in each well of 24-well culture plate and allowed to gel at 37° C. for 1 h. HUVECs were plated at a density of 1×10^5 cells per well with 400 μl of EGM-2 medium (Lonza Walkersville Inc. Walkersville, Md.). The cells were then treated with either 10 ng/ml of Human recombinant Fibroblast Growth Factor (FGF, R&D Systems, Minneapolis, Minn.)) alone or concurrently with different concentrations of Compound 27 for 16 hours. Vehicle control cultures received only 0.1% DMSO. Pictures were taken under a Nikon Eclipse TS 100 microscope equipped with a Nikon Coolpix camera. […] In contrast, FGF promoted human endothelial capillary formation in vitro (FIG. 1).
# [6] = test system: human lung carcinoma A549 cells; test: MTT based cell proliferation assay, A549; settings: Homo sapiens, A549, 72 h, read-out: Cell Proliferation Inhibition in A549 (Lung carcinoma), IC50
# [7] = test system: human colorectal carcinoma HT29 cells; test: MTT based cell proliferation assay, HT29; settings: Homo sapiens, HT-29, 72 h, read-out: Cell Proliferation Inhibition in HT29 (Colon carcinoma), IC50
smiles,measurement,setting,value
COc1cc2nc(CN(C)C)nc(Nc3cc(C(C)(C)C)[se]c3C(N)=O)c2cc1OC [Compound 27],IC50,"[1]; Homo sapiens, HeLa, MTT, read-out: Cell proliferation inhibition (IC50) in HeLa (Cervical Carcinoma)",2880 nM
same,"potency compared to Iressa, HeLa",[1]; ratio of IC50 values,equally more potent than Iressa
same,IC50,"[2]; Homo sapiens, MDA-MB-231, MTT, read-out: Cell proliferation inhibition (IC50) in MDA-MB-231 (Breast Carcinoma)",3090 nM
same,"potency compared to Iressa, MDA-MB-231",[2]; ratio of IC50 values,equally more potent than Iressa
same,IC50,"[3]; Homo sapiens, HepG2, MTT, read-out: Cell proliferation inhibition (IC50) in HepG2 (Hepatocellular Carcinoma)",2340 nM
same,"potency compared to Iressa, HepG2",[3]; ratio of IC50 values,equally more potent than Iressa
same,IC50,[4],2970 nM
same,inhibition of FGF induced capillary-like endothelial tube formation,[5],inhibits capillary-like endothelial tube formation in vitro; also recorded: inhibited FGF induced capillary formation in a dose dependent manner
same,inhibition of FGF induced capillary-like endothelial tube formation,[5]; listed as compound 27,significantly inhibiting endothelial capillary formation in a dose dependent manner
same,IC50,[6],3580 nM
same,IC50,[7],2860 nM
